Measurements: patent US8835392B2, “Mimetic peptides and the use thereof in the form of 20S, 26S and immunoproteasome inhibitors” (Technische Universität, priority 2005, dated 2014)
“Also recorded” adds a separate entry of the source. Where a SMILES comes first, the peptide text is derived from it. The star is where a group is joined. Cbz = O=C(OCc1ccccc1)*; OtBu = CC(C)(C)O*

Assays:
[1] = target: T1, 20S proteasome β5 chymotrypsin-like activity (Suc-LLVY-AMC) (Homo sapiens, UniProt P20618+P28074); assay: Protease assay, chymotrypsin-like activity of isolated 20S proteasomes (LLVY substrate); format: biochemical; conditions: isolated 20S proteasome; LLVY-MCA 50 μM; 15 min pre-incubation; read-out: IC50 β5 Chymotrypsin-like (Y)
T1 construct: Proteasomes were isolated from red blood cells; from tissue; host or cells: red blood cells
Procedure: (§1) Proteasomes were isolated from red blood cells. Cells were lysed with DTT (1 mM), and the stroma-free supernatant was loaded on DEAE-sepharose (Toyopearls). Proteasome was eluted with an NaCl-gradient in TEAD (20 mM TrisCl pH 7.4, 1 mM EDTA, 1 mM azide, 1 mM DTT) of 100 to 300 mM NaCl. Proteasome was concentrated using ammonium sulfate-precipitation (between 40 and 70% saturation) and was separated in a 10-40% sucrose-gradient through centrifugation at 40.000 rpm for 16 hours (SW40; L7, Beckman & Coulter). Finally, the proteasomes were purified on a MonoQ-column and eluted with an NaCl-gradient at about 280 mM NaCl. The fractions containing purified proteasome were dialysed against 50 mM NaCl in TEAD and stored on ice. The purity was determined using SDS-PAGE.
(§2) Suc-LLVY-AMC, Z-VGR-AMC and LLE-AMC (BACHEM, Calbiochem) was used, in order to determine the chymotrypsin-like, trypsin-like or caspase-like (post-acidic)-activities of the proteasome. Substrate was incubated with proteasome at 37° C. in assay-buffer (20 mM Tris/Cl, pH 7.2, 1 mM EDTA, 1 mM DTT) for one hour. 100 ng proteasome was pre-incubated with 0.01-10 μM of the inhibitor for […]. The reaction was started by the addition of substrate (50 μM). The AMC as released was detected using fluorescence emission at 460 nm (excitation at 390 nm) using a TECAN-fluorimeter. The activity was calculated in fluorescence-units. The inhibition is depicted by IC50-values.
The chymotrypsin-like (Suc-LLVY-AMC), the trypsin-like (Bz-VGR-AMC), and the caspase-like (Z-LLE-AMC)-activities of 20S proteasomes were determined following incubation for one hour at 37° C.
(§3) The IC50-values form the inhibition of the proteasome were calculated at increasing concentrations of the inhibitor. The samples were pre-incubated for 15 min in ice. The assay was started through the addition of 50 μM of one of the following fluorogenic peptide substrates:
(§4) The release of MCA was determined at 460 nm emission (excitation 390 nm). The IC50-values as calculated for MG132 served as controls.

[2] = test system: HeLa-cells; assay: Viability of HeLa-cells, crystal violet-staining; format: cell-based; conditions: for rate of survival of HeLa-cells: 10 μM, 20 hours
Procedure: A, The viability of HeLa-Cells that were incubated with the compounds 7-28 and MG132 (1 μM), was determined using crystal-violet-staining after 20 h.
B, The viability of HeLa-Cells is dependent from the concentration of the inhibitor. HeLa-cells were cultivated for 20 hours in the presence of increasing concentrations (10 to 10000 nM) of the compounds (7, 13, 15, 18, 20-22, 24-28) and MG 132. The survival of the cells was determined using crystal-violet-staining.
The viability of Hela-Cells in the presence of different compounds was tested in […]. The viability of HeLa-cells was tested through crystal violet-staining following the incubation with the inhibitors. The cells were washed once with PBS, fixed with 1% glutardialdehyde for 30 min, and washed again. Finally, the fixed cells were stained with 0.1% crystal violet in PBS for 30 min, and subsequently carefully washed with water, in order to remove unbound dye. The residual dye was eluted with 0.1% Triton X-100 in PBS, and determined at 550 nm.

[3] = target: T2, 20S proteasome β1 caspase-like activity (LLE-MCA) (Homo sapiens, UniProt P28072+Q99436); assay: Protease assay, caspase-like activity of isolated 20S proteasomes; format: biochemical; conditions: isolated 20S proteasome; LLE-MCA 50 μM; 15 min pre-incubation; read-out: IC50 β1 Caspase-like (E)
T2 construct: Proteasomes were isolated from red blood cells; from tissue; host or cells: red blood cells
Procedure: as §1, §2
The effects thereof were compared with the one of the commonly used proteasomal inhibitor 3 (MG132). The chymotrypsin-like (Suc-LLVY-AMC), the trypsin-like (Bz-VGR-AMC), and the caspase-like (Z-LLE-AMC)-activities of 20S proteasomes were determined following incubation for one hour at 37° C.
as §3, §4

[4] = test system: poly-ubiquitinylated proteins in HeLa-cells; assay: Accumulation of poly-ubiquitinylated proteins, Western blot; format: cell-based; conditions: 1 μM for compound 15
Procedure: A, HeLa-cells were cultivated were 24 hours in the presence of the inhibitor. The protein concentration was determined in accordance with the cellular lysis according to Bradford in order to normalise the proteasomal activities to the different amounts of cells. Subsequently Complete (Roche) was added to all lysates, and the proteasomal activity was determined through the hydrolysis of Suc-LLVY-AMC. B, HeLa-cells was incubated with 1 μM of compound 15 for 2, 4, 6 and 24 hours. Cells were lysed, and proteins were separated through SDS-PAGE on a 10% gel, blotted to a PVDF-membrane. The accumulation of the poly-ubiquitinylated proteins was detected in a Western blot by an anti-ubiquitine-antibody (DAKO). C, HeLa-Cells were treated with increasing concentrations of the inhibitor 15, 25, 26, 27, and 28 for 24 hours (lane 1: without inhibitor; lane 2: 10 nM; lane 3: 100 nM and lane 4: 1 μM of the given inhibitor). Cells were lysed, proteins were separated on 15% gels, and the accumulation of the poly-ubiquitinylated proteins was controlled through Western blot.
A specific inhibition of the proteasome lead to an accumulation of poly-ubiquitinylated proteins. Indeed, the amount of poly-ubiquitinylated proteins increased during the incubation with the inhibitors. First effects were observed after 2 hours, for compound 15 (FIG. 6B) as well as for compounds 20, 22, 25 and 28 (data not shown).
50 μg of whole-cell-lysate were separated by SDS-PAGE, and blottet onto a PVDF-membrane (Millipore). The blots were blocked by means of a 5% milk-suspension. The poly-ubiquitinylated proteins were detected by anti-ubiquitin-antibody (DAKO), and anti-rabbit, POD-labelled, as a secondary antibody (DIANOVA), and visualized through ECL.

[5] = test system: caspase 3/7 activation in HeLa-cells; assay: Apoptosis-assay, caspase 3/7-activity (Apo-One); format: cell-based; conditions: 1 μM, 20 hours
Procedure: HeLa-cells that were cultivated for 20 hours in the presence of the given inhibitor, were subsequently incubated for 2 hours with caspase-substrate (Apo-One; Promega). The activation of caspases 3/7 was measured at 538 nm (excitation at 485 nm). Treatment of the cells with TNFα or with MG132 served as control.
For this, 10,000 HeLa-cells pro well were seeded in a 96-well-plate, and co-cultivated for 20 hours with 1 μM of the inhibitors 7, 8, 11, 13-16, 18, 20-23 and 25-28. The induction of apoptosis was determined by measuring of the caspase 3/7-activity (Apo-One®-Assay, Promega).

| Compound | IC50 [1] [nM] | toxicity [2] | rate of survival of HeLa-cells [2] | IC50 [3] [nM] | first effects on accumulation of poly-ubiquitinylated proteins observed after [4] [h] | induction of apoptosis (activation of caspase 3 and 7) [5] |
| --- | --- | --- | --- | --- | --- | --- |
| CC(C)CC(C=O)NC(=O)C(CC(=O)OC(C)(C)C)NC(=O)C(CC(C)C)NC(=O)OCc1ccccc1 (stereo not drawn) [Compound 15, Z-Leu-Asp(O^tBu)Leu-CHO] (Cbz-Leu-Asp(OtBu)-Leu-aldehyde; configuration not given here) | 58 | low toxicity | markedly reduced | 1790 | 2 | beginning apoptosis; also recorded: strong induction of apoptosis |
| CC(C)C[C@H](NC(=O)OCc1ccccc1)C(=O)N[C@@H](CC(C)C)C(=O)N[C@@H](CC(C)C)C(=O)C(=O)Nc1ccccc1 [Compound 28] | 72 | – | markedly reduced | > 10000 | 2 | beginning apoptosis; also recorded: strong induction of apoptosis |
